# Measured values taken from patent US4002623A, “Anti-inflammatory 1-[3-(dialkylamino)propyl]-2-acylaminobenzimidazoles and 2-acylamino-3-[3-(dialkylamino)-propyl]imidazo[4,5-b]pyridines” (Pfizer Inc., priority 1974, dated 1977).
# Test: adjuvant arthritis screen (Walz et al.), swelling of the non-injected left hind foot on Day 16
# Format: in vivo, male inbred Lewis rats
# Conditions: Rattus norvegicus, 384 h, 10 mg./kg. ip, daily day -1 through day 15, read-out: Activity Percent Inhibition
# Excerpt: The adjuvant arthritis test described by Walz et al., Ann. Rheum. Dis., 30, 303 (1971) was selected as the method of choice for the determination of the extent of which the novel compounds of the present invention are therapeutically effective as anti-inflammatory agents. Adjuvant arthritis is a crippling deformity in rats resulting from diffuse connective tissue involvement. It is considered by some authorities to be the best available experimental animal model of human rheumatoid arthritis because of its strong clinical and pathological similarities to the human disease and because it can be effectively treated with known anti-arthritic drugs. In this test, lesions resembling those of human rheumatoid arthritis are induced by the injection of complete Freund's adjuvant into one hind leg of a rat. A vigorous inflammatory response occurs in the injected hind leg and reaches its greatest size in about four days. This primary response is followed by the development of a second inflammatory response, appearing about 12-16 days post-injection, that occurs in the uninjected hind leg. While the compounds of the invention are capable of inhibiting the degree of inflammation in both legs, the inhibition of swelling in the uninjected leg at 16 days is considered to be the more meaningful measure of antiarthritic activity.
# The adjuvant arthritis screen as described by Walz et al. (Ann. Rheum. Dis., 30: 303 (1971), was used to evaluate the above prepared compounds.
# The screen is conducted using male inbred Lewis rats weighing approximately 250 gm. The animals are dosed with drug beginning on day- 1 and continuing daily through day 15. On Day 0, the subplanter surface of the right hind paw is injected with 0.1cc of a 1% suspension of Mycobacterium butyricum (Freunds adjuvant) in Primol (Esso). The swelling of the non-injected left hind foot on Day 16, resulting from immune response to adjuvant, was determined for dosed animals and controls. The foot volume is measured by immersing the paw to the anatomical hairline into a mercury reservoir which is connected to a Statham pressure transducer and a recording device. The results are expressed as % inhibition calculated according to the following equation: [formula] The results obtained are as follows for [drawing 22] where Z is --N(CH3)2 and X is carbon: […]
row,SMILES,inhibition in vivo at 10 mg/kg [%]
1,COc1ccc(C(=O)Nc2nc3ccccc3n2CCCN2CCN(Cc3ccccc3)CC2)cc1 [4-Methoxyphenyl; H; H; drawing 27],32
2,"O=C(Nc1nc2ccccc2n1CCCN1CCN(Cc2ccccc2)CC1)c1ccc(Cl)c(Cl)c1 [3,4-Dichlorophenyl; H; H; drawing 27]",19
3,O=C(Nc1nc2ccccc2n1CCCN1CCN(Cc2ccccc2)CC1)c1ccccc1 [Phenyl; H; H; drawing 27],44

# Same assay, conditions: Rattus norvegicus, 384 h, 10 mg./kg. po, daily day -1 through day 15, read-out: Activity Percent Inhibition
row,SMILES,inhibition in vivo at 10 mg/kg [%]
1,CN1CCN(CCCn2c(NC(=O)c3cccc(C(F)(F)F)c3)nc3cc(Cl)ccc32)CC1 [3-Trifluoromethylphenyl; Cl; H; drawing 24],16
2,"COc1ccc(C(=O)Nc2nc3ccccc3n2CCCN(C)C)cc1 [4-Methoxyphenyl; H; H; Z = N(CH3)2, 1-[3-(dimethylamino)propyl]-2-(4-methyoxybenzamido-)benzimidazole]",12
3,"CN(C)CCCn1c(NC(=O)c2ccc(Cl)c(Cl)c2)nc2ccccc21 [3,4-Dichlorophenyl; H; H; Z = N(CH3)2]",13
4,Cc1ccc2nc(NC(=O)c3cccc(Cl)c3)n(CCCN3CCN(C)CC3)c2c1 [3-Chlorophenyl; H; CH3; drawing 24],-5
5,"CN1CCN(CCCn2c(NC(=O)c3cccc(C(F)(F)F)c3)nc3cc(C(F)(F)F)ccc32)CC1 [3-Trifluoromethylphenyl; CF3; H; drawing 24, 1-[3-(4-methyl-1-piperazinyl)propyl]-2-(3-trifluoromethylbenzamido)-5-trifluoromethylbenzimidazole]",46
6,CN1CCN(CCCn2c(NC(=O)c3cccc(Cl)c3)nc3cc(Cl)ccc32)CC1 [3-Chlorophenyl; Cl; H; drawing 24],-5
7,"COc1ccc2c(c1)nc(NC(=O)c1ccc(Cl)c(Cl)c1)n2CCCN1CCN(C)CC1 [3,4-Dichlorophenyl; OCH3; H; drawing 24, 1-[3-(4-methyl-1-piperazinyl)propyl]-2-(3,4-dichlorobenzamido)-5-methoxybenzimidazole]",35

# Same assay, conditions: Rattus norvegicus, 384 h, 20 mg./kg. po, daily day -1 through day 15, read-out: Activity Percent Inhibition
row,SMILES,inhibition in vivo at 20 mg/kg [%]
1,Cc1cc2nc(NC(=O)c3cccc(C(F)(F)F)c3)n(CCCN3CCN(C)CC3)c2cc1C,22
2,COc1cccc(C(=O)Nc2nc3cc(S(=O)(=O)N(C)C)ccc3n2CCCN2CCN(C)CC2)c1 [3-Methoxyphenyl; SO2 N(CH3)2; H; drawing 24],13
3,"CN1CCN(CCCn2c(NC(=O)c3ccco3)nc3ccccc32)CC1 [2-Furyl; H; H; drawing 24, 1-[3-(4-methyl-1-piperazinyl)propyl]-2-(2-furamido)-benzimidazole]",43
4,CN1CCN(CCCn2c(NC(=O)C=Cc3ccc(Cl)cc3)nc3cc(C(F)(F)F)ccc32)CC1 [4-Chlorostyryl; CF3; H; drawing 24],6
5,"Cc1ccc2nc(NC(=O)c3ccc(Cl)c(Cl)c3)n(CCCN3CCN(C)CC3)c2c1 [3,4-Dichlorophenyl; H; CH3; drawing 24]",22
6,CN1CCN(CCCn2c(NC(=O)c3ccc(Cl)c(Cl)c3)nc3cc(S(=O)(=O)N(C)C)ccc32)CC1,31
7,Cc1ccc2c(c1)nc(NC(=O)c1cccc(C(F)(F)F)c1)n2CCCN1CCN(C)CC1 [3-Trifluoromethylphenyl; CH3; H; drawing 24],27
8,Cc1ccc2nc(NC(=O)c3ccc(C(F)(F)F)cc3)n(CCCN3CCN(C)CC3)c2c1 [4-Trifluoromethylphenyl; H; CH3; drawing 24],50
9,CN1CCN(CCCn2c(NC(=O)c3ccc(C(F)(F)F)cc3)nc3cc(S(=O)(=O)N(C)C)ccc32)CC1,34
10,"Cc1ccc2c(c1)nc(NC(=O)C=Cc1ccc(Cl)cc1)n2CCCN1CCN(C)CC1 [4-Chlorostyryl; CH3; H; drawing 24, 1-[3-(4-methyl-1-piperazinyl)propyl]-2-(p-chlorocinnamido)-5-methylbenzimidazole]",39
11,CN1CCN(CCCn2c(NC(=O)c3cc(C(F)(F)F)cc(C(F)(F)F)c3)nc3ccccc32)CC1,32
12,CN1CCN(CCCn2c(NC(=O)c3ccc(C(F)(F)F)cc3)nc3ccccc32)CC1 [4-Trifluoromethylphenyl; H; H; drawing 24],51
13,COc1ccc(C(=O)Nc2nc3ccc(C)cc3n2CCCN2CCN(C)CC2)cc1 [4-Methoxyphenyl; H; CH3; drawing 24],22
14,"CN1CCN(CCCn2c(NC(=O)c3cccc(Cl)c3)nc3cc(C(F)(F)F)ccc32)CC1 [3-Chlorophenyl; CF3; H; drawing 24, 1-[3-(4-methyl-1-piperazinyl)propyl]-2-(3-chlorobenzamido)-5-trifluoromethylbenzimidazole]",45
15,Cc1ccc2c(c1)nc(NC(=O)c1ccc(Cl)cc1)n2CCCN1CCN(C)CC1 [4-Chlorophenyl; CH3; H; drawing 24],27
16,Cc1ccc2nc(NC(=O)c3ccccc3)n(CCCN3CCN(C)CC3)c2c1 [Phenyl; H; CH3; drawing 24],23

# Same assay, conditions: Rattus norvegicus, 384 h, 33 mg./kg. ip, daily day -1 through day 15, read-out: Activity Percent Inhibition
row,SMILES,inhibition in vivo at 33 mg/kg [%]
1,"CN1CCN(CCCn2c(NC(=O)c3cc(Cl)cc(Cl)c3)nc3ccccc32)CC1 [3,5-Dichlorophenyl; H; H; drawing 24]",31
2,COc1cccc(C(=O)Nc2nc3cc(OC)ccc3n2CCCN2CCN(C)CC2)c1 [3-Methoxyphenyl; OCH3; H; drawing 24],43
3,CN(C)CCCn1c(NC(=O)c2ccccc2Cl)nc2ccccc21 [2-Chlorophenyl; H; H; Z = N(CH3)2],15
4,CN1CCN(CCCn2c(NC(=O)c3cccc(F)c3)nc3ccccc32)CC1 [3-Fluorophenyl; H; H; drawing 24],34
5,CN1CCN(CCCn2c(NC(=O)c3cccc(C(F)(F)F)c3)nc3cc(Cl)ccc32)CC1 [3-Trifluoromethylphenyl; Cl; H; drawing 24],74
6,"COc1ccc(C(=O)Nc2nc3ccccc3n2CCCN(C)C)cc1 [4-Methoxyphenyl; H; H; Z = N(CH3)2, 1-[3-(dimethylamino)propyl]-2-(4-methyoxybenzamido-)benzimidazole]",59
7,COc1cccc(C(=O)Nc2nc3ccccc3n2CCCN2CCCCC2)c1 [3-Methoxyphenyl; H; H; drawing 26],52
8,"CN(C)CCCn1c(NC(=O)c2ccc(Cl)c(Cl)c2)nc2ccccc21 [3,4-Dichlorophenyl; H; H; Z = N(CH3)2]",67
9,Cc1ccc2nc(NC(=O)c3cccc(Cl)c3)n(CCCN3CCN(C)CC3)c2c1 [3-Chlorophenyl; H; CH3; drawing 24],66
10,Cc1cccc(C(=O)Nc2nc3ccccc3n2CCCN2CCN(C)CC2)c1 [3-Methylphenyl; H; H; drawing 24],39
11,"CN1CCN(CCCn2c(NC(=O)c3cccc(C(F)(F)F)c3)nc3cc(C(F)(F)F)ccc32)CC1 [3-Trifluoromethylphenyl; CF3; H; drawing 24, 1-[3-(4-methyl-1-piperazinyl)propyl]-2-(3-trifluoromethylbenzamido)-5-trifluoromethylbenzimidazole]",83
12,"O=C(Nc1nc2ccccc2n1CCCN1CCCCC1)c1ccc(C(F)(F)F)cc1 [4-Trifluoromethylphenyl; H; H; drawing 26, 1-[3-(1-piperidinyl)propyl]-2-(4-trifluoromethylbenzamido)benzimidazole]",79
13,CC(C)(C)CC(=O)Nc1nc2ccccc2n1CCCN1CCOCC1 [(CH3)3 CCH2; H; H; drawing 23],13
14,CN1CCN(CCCn2c(NC(=O)c3cccc(Cl)c3)nc3cc(Cl)ccc32)CC1 [3-Chlorophenyl; Cl; H; drawing 24],66
15,O=C(Nc1nc2ccccc2n1CCCN1CCOCC1)c1cccc(C(F)(F)F)c1 [3-Trifluoromethylphenyl; H; H; drawing 23],0
16,O=C(Nc1nc2ccccc2n1CCCN1CCCCC1)c1ccco1 [Furyl; H; H; drawing 26],12
17,CN1CCN(CCCn2c(NC(=O)c3ccc(C(C)(C)C)cc3)nc3ccccc32)CC1 [4-t-Butylphenyl; H; H; drawing 24],26
18,O=C(C=Cc1ccccc1)Nc1nc2ccccc2n1CCCN1CCCCC1 [Styryl; H; H; drawing 26],33
19,CN(C)CCCn1c(NC(=O)c2cccc(C(F)(F)F)c2)nc2ccccc21,21
20,CN1CCN(CCCn2c(NC(=O)C3CCC3)nc3ccccc32)CC1 [Cyclobutyl; H; H; drawing 24],34
21,O=C(Nc1nc2ccccc2n1CCCN1CCCCC1)c1cccc(Cl)c1 [3-Chlorophenyl; H; H; drawing 26],34
22,CN1CCN(CCCn2c(NC(=O)c3ccc(C(F)(F)F)cc3)nc3ccccc32)CC1 [4-Trifluoromethylphenyl; H; H; drawing 24],77
23,COc1cccc(C(=O)Nc2nc3cc(C(F)(F)F)ccc3n2CCCN2CCN(C)CC2)c1 [3-Methoxyphenyl; CF3; H; drawing 24],46
24,CN1CCN(CCCn2c(NC(=O)c3ccc(Cl)cc3)nc3ccccc32)CC1 [4-Chlorophenyl; H; H; drawing 24],43
25,"CN1CCN(CCCn2c(NC(=O)c3cccc(Cl)c3)nc3cc(C(F)(F)F)ccc32)CC1 [3-Chlorophenyl; CF3; H; drawing 24, 1-[3-(4-methyl-1-piperazinyl)propyl]-2-(3-chlorobenzamido)-5-trifluoromethylbenzimidazole]",73
26,CN1CCN(CCCn2c(NC(=O)c3cccc(Cl)c3)nc3cc(Cl)c(Cl)cc32)CC1 [3-Chlorophenyl; Cl; Cl; drawing 24],66
27,CN(C)CCCn1c(NC(=O)C=Cc2ccccc2Cl)nc2ccccc21 [2-Chlorostyryl; H; H; Z = N(CH3)2],45
28,CN1CCN(CCCn2c(NC(=O)C34CC5CC(CC(C5)C3)C4)nc3ccccc32)CC1 [1-Adamantyl; H; H; drawing 24],28
